The target of one test is T1, human DP2 receptor (Homo sapiens, UniProt Q9Y5Y4).
T1 construct: expressed in transfected cells
T1 sequence (Q9Y5Y4 1-395): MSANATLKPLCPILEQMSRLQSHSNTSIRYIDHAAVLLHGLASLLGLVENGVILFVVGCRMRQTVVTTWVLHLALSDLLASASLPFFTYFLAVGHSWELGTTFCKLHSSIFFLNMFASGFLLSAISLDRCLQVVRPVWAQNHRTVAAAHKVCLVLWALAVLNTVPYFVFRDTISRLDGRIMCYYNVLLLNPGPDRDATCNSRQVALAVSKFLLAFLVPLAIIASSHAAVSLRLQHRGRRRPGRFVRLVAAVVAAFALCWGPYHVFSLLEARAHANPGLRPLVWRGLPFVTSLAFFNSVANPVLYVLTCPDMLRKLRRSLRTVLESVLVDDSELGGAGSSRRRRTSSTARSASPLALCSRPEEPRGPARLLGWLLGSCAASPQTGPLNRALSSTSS
The experiment in a line: DP2/CRTH2 radioligand binding assay using [3H]PGD2. As to conditions: [3H]PGD2 binding, membranes of HEK293 cells expressing recombinant human DP2; read-out: hDP2. Here is the method: The ability of a compound to bind to the human DP2 receptor is assessed via a radioligand binding assay using [^3H]PGD2. HEK293 cells stably expressing recombinant human DP2 are resuspended in 10 mM Hepes, 7.4 containing 1 mM DTT, lysed and centrifuged at 75,000×g to pellet the membranes. The membranes are resuspended in 10 mM Hepes, 7.4 containing 1 mM DTT and 10% glycerol to approximately 5 mg protein/ml. Membranes (2-10 μg protein/well) are incubated in 96-well plates with 1 nM [^3H]PGD2 and test compound in Assay Buffer (50 mM Hepes, 10 mM MnCl2, 1 mM EDTA, plus or minus 0.2% human serum albumin, pH 7.4) for 60 minutes at room temperature. The reactions are terminated by rapid filtration through Whatman GF/C glass fibre filter plates. The filter plates were pre-soaked in 0.33% polythylenimine for 30 minutes at room temperature then washed in Wash Buffer (50 mM Hepes, 0.5 M NaCl pH 7.4) prior to harvesting. After harvesting, the filter plates are washed 3 times with 1 ml cold Wash Buffer then dried. Scintillant is then added to the plates and the radioactivity retained on the filters is determined on a Packard TopCount (Perkin Elmer). Specific binding is determined as total radioactive binding minus non-specific binding in the presence of 10 μM PGD2. IC50s were determined using GraphPad prism analysis of drug titration curves.

The next test concerns the target T2, human DP1 receptor (Homo sapiens, UniProt Q13258).
T2 construct: tissue Biological Specialty Corporation; host or cells: human platelets, membranes
T2 sequence (Q13258 1-359): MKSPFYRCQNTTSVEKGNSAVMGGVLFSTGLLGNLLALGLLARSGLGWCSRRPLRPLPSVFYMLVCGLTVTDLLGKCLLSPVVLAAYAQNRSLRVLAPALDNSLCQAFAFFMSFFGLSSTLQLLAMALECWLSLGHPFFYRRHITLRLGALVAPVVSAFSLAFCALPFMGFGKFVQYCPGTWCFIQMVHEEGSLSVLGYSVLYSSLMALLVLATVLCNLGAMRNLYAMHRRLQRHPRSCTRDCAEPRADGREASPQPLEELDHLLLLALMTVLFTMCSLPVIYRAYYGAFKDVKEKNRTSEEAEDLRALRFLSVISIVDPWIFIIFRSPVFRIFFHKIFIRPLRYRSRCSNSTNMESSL
The experiment in a line: DP1 radioligand membrane binding assay using [3H]BWA868C. Particulars: [3H]BWA868C binding, human platelet membranes; read-out: hDP1. The method, then: The ability of a compound to bind to the human DP1 receptor was evaluated via a radioligand membrane binding assay using the DP1 selective synthetic ligand [^3H]BWA868C. Packed human platelets (Biological Specialty Corporation), were resuspended in 6 volumes of Hepes/HBSS buffer (10 mM Hepes, 1 mM DTT in Hanks Balanced Salt Solution (HBSS)), lysed and centrifuged at 75,000×g to pellet the membranes. Membranes were resuspended in Hepes/HBSS buffer to approximately 12 mg protein/ml. Membranes (20 μg protein/well) are incubated in 96-well plates with 2 nM [^3H]BWA868C and test compound in Assay Buffer (50 mM Hepes, 10 mM MnCl2, 1 mM EDTA, plus or minus 0.2% human serum albumin, pH 7.4) for 60 minutes at room temperature. The reactions are terminated by rapid filtration through Whatman GF/C glass fibre filter plates. The filter plates were pre-soaked in […] polethylenimine for 30 minutes at room temperature then washed in Wash Buffer (50 mM Hepes, 0.5 M NaCl pH 7.4) prior to harvesting. After harvesting, the filter plates are washed 3 times with 1 ml cold Wash Buffer then dried. Scintillant is then added to the plates and the radioactivity retained on the filters is determined on a Packard TopCount (Perkin Elmer). Specific binding is determined as total radioactive binding minus non-specific binding in the presence of 10 μM BWA868C. IC50s were determined using GraphPad prism analysis of drug titration curves.

Test [1] concerns the target T3, recombinant human CRTH2 receptor (Homo sapiens, UniProt Q9Y5Y4).
T3 construct: expressed in transfected cells
T3 sequence (Q9Y5Y4 1-395): T1 sequence (Q9Y5Y4 1-395)
In words: GTPγS binding assay. The test is classed as biochemical. As to conditions: +HSA; CHO cell membranes, 80 nM PGD2; read-out: hDP2 GTPγS μM (+HSA). The method, then:
The ability of a compound to inhibit binding of GTP to DP2 is assessed via a membrane GTPγS assay. CHO cells stably expressing the recombinant human CRTH2 receptor are resuspended in 10 mM Hepes, 7.4 containing 1 mM DTT, lysed and centrifuged at 75,000×g to pellet the membranes. The membranes are resuspended in 10 mM Hepes, 7.4 containing 1 mM DTT and 10% glycerol. […] The reactions are terminated by rapid filtration through Whatman GF/B glass fibre filter plates. The filter plates are washed 3 times with 1 ml cold Assay Buffer and dried. Scintillant is then added to the plates and the radioactivity retained on the filters is determined on a Packard TopCount (Perkin Elmer). Specific binding is determined as total radioactive binding minus non-specific binding in the absence of the ligand (80 nM PGD2). IC50s were determined using Graphpad prism analysis of drug titration curves.
In general terms: Binding of GTPγS marks nucleotide exchange on a G protein.

Molecules are shown by their SMILES.

As for `COc1ccc(CC(=O)O)cc1-c1ccc(C(F)(F)F)cc1CN(C)C(C)=O` [Compound 1-1, {2′-[(Acetyl-methyl-amino)-methyl]-6-methoxy-4′-trifluoromethyl-biphenyl-3-yl}-acetic acid], the results for the IC50 (on human DP2 receptor; at human DP1 receptor; in test [1]) were < 300 nM, > 1000 nM and < 0.3 µM, respectively.
Turning to `CCN(Cc1cc(C(F)(F)F)ccc1-c1cc(CC(=O)O)ccc1OC)C(C)=O` [Compound 1-2, {2′-[(Acetyl-ethyl-amino)-methyl]-6-methoxy-4′-trifluoromethyl-biphenyl-3-yl}-acetic acid], the IC50 is < 300 nM at human DP2 receptor, > 1000 nM on human DP1 receptor and < 0.3 µM in test [1].
For `COc1ccc(CC(=O)O)cc1-c1ccc(C(F)(F)F)cc1CN(CC(F)(F)F)C(C)=O` [Compound 1-4, (2′-{[Acetyl-(2,2,2-trifluoro-ethyl)-amino]-methyl}-6-methoxy-4′-trifluoromethyl-biphenyl-3-yl)-acetic acid], in that order: < 300 nM, > 1000 nM and < 0.3 µM.
As to `CCN(Cc1cc(NC(C)=O)ccc1-c1cc(CC(=O)O)ccc1OC)C(=O)OCc1ccccc1` [Compound 1-153, {4′-Acetylamino-2′-[(benzyloxycarbonyl-ethyl-amino)-methyl]-6-methoxy-biphenyl-3-yl}-acetic acid], the IC50 was < 300 nM at human DP2 receptor and > 1000 nM on human DP1 receptor.
The like results for `CCN(Cc1cc(NS(C)(=O)=O)ccc1-c1cc(CC(=O)O)ccc1OC)C(=O)OCc1ccccc1` [Compound 1-155, {2′-[(Benzyloxycarbonyl-ethyl-amino)-methyl]-4′-methanesulfonylamino-6-methoxy-biphenyl-3-yl}-acetic acid] were, in that order, < 300 nM and > 1000 nM.
The like results for `CCN(Cc1cc(C(F)(F)F)ccc1-c1cc(CC(=O)O)ccc1OC)C(=O)NCc1cc(Cl)cc(Cl)c1` [Compound 1-165, {2′-[3-(3,5-Dichloro-benzyl)-1-ethyl-ureidomethyl]-6-methoxy-4′-trifluoromethyl-biphenyl-3-yl}-acetic acid] were, in that order, < 300 nM and > 1000 nM.
The like results for `CCN(Cc1cc(C(F)(F)F)ccc1-c1cc(CC(=O)O)ccc1OC)C(=O)NCc1ccc(F)cc1` [Compound 1-176, {2′-[1-Ethyl-3-(4-fluoro-benzyl)-ureidomethyl]-6-methoxy-4′-trifluoromethyl-biphenyl-3-yl}-acetic acid] were, in that order, < 300 nM and > 1000 nM.
`CCN(Cc1cc(C(F)(F)F)ccc1-c1cc(CC(=O)O)ccc1OC)C(=O)NCc1cccc(Cl)c1` [Compound 1-177, {2′-[3-(3-Chloro-benzyl)-1-ethyl-ureidomethyl}-6-methoxy-4′-trifluoromethyl-biphenyl-3-yl}-acetic acid]: the results for the IC50 on human DP2 receptor and on human DP1 receptor were < 300 nM and > 1000 nM, respectively.
For `CCN(Cc1cc(C(F)(F)F)ccc1-c1cc(CC(=O)O)ccc1OC)C(=O)NCc1cc(F)cc(F)c1` [Compound 1-178, {2′-[3-(3,5-Difluoro-benzyl)-1-ethyl-ureidomethyl]-6-methoxy-4′-trifluoromethyl-biphenyl-3-yl}-acetic acid], in that order: < 300 nM and > 1000 nM.
The like results for `CCN(Cc1cc(C(F)(F)F)ccc1-c1cc(CC(=O)O)ccc1OC)C(=O)N[C@H](C)c1ccc(Cl)cc1` [Compound 1-179, (2′-{3-[(R)-1-(4-Chloro-phenyl)-ethyl]-1-ethyl-ureidomethyl}-6-methoxy-4′-trifluoromethyl-biphenyl-3-yl)-acetic acid] were, in that order, < 300 nM and > 1000 nM.
For `CCN(Cc1cc(C(F)(F)F)ccc1-c1cc(CC(=O)O)ccc1OC)C(=O)N[C@@H](C)c1ccc(Cl)cc1` [Compound 1-180, (2′-{3-[(S)-1-(4-Chloro-phenyl)-ethyl]-1-ethyl-ureidomethyl}-6-methoxy-4′-trifluoromethyl-biphenyl-3-yl)-acetic acid], in that order: < 300 nM and > 1000 nM.
As for `CCNC(=O)N(CC)Cc1cc(C(F)(F)F)ccc1-c1cc(CC(=O)O)ccc1OC` [Compound 1-181, [2′-(1,3-Diethyl-ureidomethyl)-6-methoxy-4′-trifluoromethyl-biphenyl-3-yl]-acetic acid], the IC50 is < 300 nM at human DP2 receptor and > 1000 nM on human DP1 receptor.
The like results for `CCN(Cc1cc(F)ccc1-c1cc(CC(=O)O)ccc1OC)C(=O)OCc1ccccc1` [Compound 1-183, {2′-[(Benzyloxycarbonyl-ethyl-amino)-methyl]-4′-fluoro-6-methoxy-biphenyl-3-yl}-acetic acid] were, in that order, < 300 nM and > 1000 nM.
For `CCN(Cc1cc(F)ccc1-c1cc(CC(=O)O)ccc1OC)C(C)=O` [Compound 1-184, {2′-[(Acetyl-ethyl-amino)-methyl]-4′-fluoro-6-methoxy-biphenyl-3-yl}-acetic acid], in that order: < 300 nM and > 1000 nM.
Consider `CCN(Cc1cc(F)ccc1-c1cc(CC(=O)O)ccc1OC)C(=O)NCc1ccc(Cl)cc1` [Compound 1-185, {2′-[3-(4-Chloro-benzyl)-1-ethyl-ureidomethyl]-4′-fluoro-6-methoxy-biphenyl-3-yl}-acetic acid], for which the IC50 on human DP2 receptor was < 300 nM; on human DP1 receptor, > 1000 nM.
The like results for `CCN(Cc1cc(F)ccc1-c1cc(CC(=O)O)ccc1OC)C(=O)NCc1ccccc1` [Compound 1-187, [2′-(3-Benzyl-1-ethyl-ureidomethyl)-4′-fluoro-6-methoxy-biphenyl-3-yl]-acetic acid] were, in that order, < 300 nM and > 1000 nM.
For the compound `CCN(Cc1cc(C(F)(F)F)ccc1-c1cc(CC(=O)O)ccc1O)C(=O)NCc1ccccc1` [Compound 1-220, [2′-(3-Benzyl-1-ethyl-ureidomethyl)-6-hydroxy-4′-trifluoromethyl-biphenyl-3-yl]-acetic acid], the IC50 on human DP2 receptor was < 300 nM; in test [1], < 0.3 µM.
For `CCN(Cc1cc(C(F)(F)F)ccc1-c1cc(CC(=O)O)ccc1OC)C(=O)C(C)C` [Compound 1-246, {2′-[(Ethyl-isobutyryl-amino)-methyl]-6-methoxy-4′-trifluoromethyl-biphenyl-3-yl}-acetic acid], in that order: < 300 nM and < 0.3 µM.

The values above are taken from patent US20110098352A1, “N,N-DISUBSTITUTED AMINOALKYLBIPHENYL ANTAGONISTS OF PROSTAGLANDIN D2 RECEPTORS” (AMIRA PHARMACEUTICALS, INC., priority 2008, published 2011).
